Source: patent US20220047529A1, “METHODS OF INHIBITION” (University of Canberra, priority 2018, published 2022)

Test system: form-deprivation myopia
Assay: Form-deprivation myopia (FDM) development in chicks with a translucent diffuser; axial length by A-scan ultrasonography
Details: four days; for axial length: diffuser-treated eye
[1] = daily intravitreal injection of 1.5 mM solution
[2] = daily intravitreal injection of 15 mM solution
[3] = daily intravitreal injection of 1.5 mM solution (10 μL), mean±SEM
[4] = daily intravitreal injection of 15 mM solution (10 μL), mean±SEM
[5] = twice daily topical administration of 1.5 mM solution, mean±SEM
[6] = twice daily topical eye drops of 15 mM solution, mean±SEM
[7] = twice daily topical eye drops of 15 mM solution

Experimental: 30 white male cockerel chickens were randomly assigned to one of six treatment groups as defined below (n=5 per group) and were treated for a four day period. • Chicks fitted with a translucent diffuser over their left eye to induce form-deprivation myopia (FDM); • Chicks fitted with a translucent diffuser over their left eye and daily intravitreal injection of a 1.5 mM (0.028%) dopamine solution prepared according to Example 1; • Chicks fitted with a translucent diffuser over their left eye and twice daily topical administration of a 1.5 mM (0.028%) dopamine solution prepared according to Example 1; • Chicks fitted with a translucent diffuser over their left eye and daily intravitreal injection of a 15 mM (0.28%) dopamine solution prepared according to Example 1; • Chicks fitted with a translucent diffuser over their left eye and twice daily topical administration of a 15 mM (0.28%) dopamine solution prepared according to Example 1; • Age-matched untreated control group.
For the drug treatments, the compositions were administered under light isoflurane anesthesia using intravitreal injection or topical administration.
Intravitreal injection was performed as follows: Using a 30 gauge needle attached to a Hamilton syringe, 10 μL (0.01 mL) of the test composition was injected into the vitreous chamber of the eye once daily.
Topical administration was performed as follows: Two drops of 40 μL (two drops of 0.04 mL, or 0.08 mL total) of the test composition was applied to the corneal surface of the eye using an eye drop dispenser. Drops were applied to the chicks twice daily.
To determine changes in the rate of eye growth and the development of myopia, changes in axial length was assessed. […] Axial length, anterior chamber depth and vitreal chamber depth were measured using A-scan ultrasonography (Biometer AL-100; Tomey Corporation, Nagoya, Japan). Statistical analysis of changes in axial length, anterior chamber depth and vitreal chamber depth between groups involved a one-way ANOVA test followed by a Student's T-test with Bonferroni correction. All data are presented as the mean±the standard deviation of the mean (SEM).

CN1[C@@H]2CC[C@H]1C[C@@H](OC(=O)C(CO)c1ccccc1)C2 (stereo partly drawn) [atropine]
effect on excessive axial elongation associated with form-deprivation myopia (in words) (daily intravitreal injection of 0.25 mM atropine alone): significantly inhibited
axial length (twice daily topical administration of 50 mM atropine solution alone): 8.79±0.09 mm

NCCc1ccc(O)c(O)c1 [dopamine, 2-(3,4-dihydroxyphenyl)ethylamine]
protection relative to FDM-only [1]: 78%
protection relative to FDM-only [2]: 78%
axial length [3]: 8.82±0.02 mm
axial length [4]: 8.82±0.11 mm
axial length [5]: 8.97±0.08 mm
axial length [6]: 8.84±0.07 mm
protection relative to FDM-only [7]: 72%

[2H]C([2H])(N)C([2H])([2H])c1ccc(O)c(O)c1 [dopamine-1,1,2,2-d4, 2-(3,4-dihydroxyphenyl)ethyl-1,1,2,2,d4-amine]
effect on excessive axial elongation associated with form-deprivation myopia (in words) (daily intravitreal injection of 0.15 mM dopamine-1,1,2,2-d4 alone): significantly inhibited
protection relative to FDM-only [1]: 92%
protection relative to FDM-only [2]: 103%
axial length [3]: 8.77±0.11 mm
axial length [4]: 8.72±0.06 mm
axial length [5]: 8.88±0.10 mm
axial length [6]: 8.85±0.14 mm
protection relative to FDM-only [7]: 71%

CN1CCN(CC(=O)N2c3ccccc3C(=O)Nc3cccnc32)CC1 [pirenzepine]
effect on excessive axial elongation associated with form-deprivation myopia (in words) (daily intravitreal injection of 17 mM pirenzepine alone): significantly inhibited
